Usually pEC50 stands for −log10 of the EC50, conventionally taken in molar units. Lower therefore signals a large EC50. The CLint scaled is the capacity of the preparation to metabolise the compound, expressed as a volume cleared per time. Broadly, the Kp is tissue or fluid exposure divided by exposure in the circulation.

Results on 21 compounds are retold here after PMC8648000 (Bioorganic & medicinal chemistry letters, 2021).

Each structure is given as a SMILES string. pEC50: −log10 of the molar value.

Data set [1] concerns the target T1, human M4 (hM4) receptor (Homo sapiens, UniProt P08173).
T1 sequence (P08173 1-479): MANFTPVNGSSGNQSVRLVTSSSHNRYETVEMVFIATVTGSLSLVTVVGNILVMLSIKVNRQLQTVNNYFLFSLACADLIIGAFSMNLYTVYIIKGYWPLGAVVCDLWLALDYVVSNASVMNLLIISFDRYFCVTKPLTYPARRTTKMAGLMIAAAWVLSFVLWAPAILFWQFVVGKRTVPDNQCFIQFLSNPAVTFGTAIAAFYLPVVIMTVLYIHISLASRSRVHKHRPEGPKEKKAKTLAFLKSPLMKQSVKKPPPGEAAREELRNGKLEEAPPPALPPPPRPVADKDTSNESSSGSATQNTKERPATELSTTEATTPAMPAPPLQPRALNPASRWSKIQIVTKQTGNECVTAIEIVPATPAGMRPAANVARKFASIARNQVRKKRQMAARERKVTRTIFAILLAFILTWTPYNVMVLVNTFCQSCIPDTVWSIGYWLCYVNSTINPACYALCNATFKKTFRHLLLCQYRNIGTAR
It is filed as cell-based. The conditions noted are these: for fold increase in functional M4 potency versus 24e: compared with 24e; for hM4 EC50: hM4/Gqi5-CHO cells, EC20 acetylcholine, n=1 experiment in triplicate.

Data set [2] in a line: Rat microsomal intrinsic clearance and predicted hepatic clearance. It is filed as in vitro ADME. Conditions: microsomes.
Data set [3] can be described thus: Human microsomal intrinsic clearance and predicted hepatic clearance. It is filed as in vitro ADME. The conditions noted are these: microsomes.
A short description of data set [4]: Rat plasma:brain level. The conditions noted are these: SD, brain and plasma, iv, 0.2 mg/kg; for Kp at […]: Kpuu, brain:plasma, SD Rat, 0.2 mg/kg IV. It is filed as in vivo.

Regarding `Cc1cc(C)c2c(n1)sc1c(N3CCCC3)nccc12` [18d], the pEC50 in data set [1] was over 6.46. The CLint scaled was 2100 mL/min/kg in data set [2] and 161 mL/min/kg in data set [3]. Moreover, in data set [4], the Kp uu at […] was determined as 4.87.
`Cc1cc(C)c2c(n1)sc1c(N3CCCC3)ncnc12` [16w]: the pEC50 in data set [1] is over 6.46. Also, in data set [2], the CLint scaled was 1900 mL/min/kg. Also, the CLint scaled in data set [3] was 134 mL/min/kg. Further, in data set [4], the Kp uu at […] was determined as 0.65 and the Kp at […] was in the range of 0.35 to 0.65.
With `Cc1cc(C)c2c(n1)sc1c(N3CC4(COC4)C3)ncnc12` [16y], the CLint scaled in data set [2] was 594 mL/min/kg. The CLint scaled in data set [3] was 129 mL/min/kg. In data set [4], this compound gave a Kp uu at […] of 0.4 and a Kp at […] of 0.35 to 0.65.
With `Cc1cc(C)c2c(n1)sc1c(C3CCN(C(=O)C4(C)CC4)CC3)ncnc12` [28b], in data set [1], the “fold increase in functional M4 potency versus 24e” value turned out to be 26 fold. In addition, the figures for the CLint scaled in data set [2] and in data set [3] were 367 mL/min/kg and 25 mL/min/kg, respectively. Besides, the Kp uu at […] in data set [4] worked out at 0.35. In data set [4], this compound had a Kp at […] of 0.35 to 0.65.
As to `Cc1cc(C)c2c(n1)sc1c(C3CCN(C(=O)C4CC4)CC3)ncnc12` [28a], the “fold increase in functional M4 potency versus 24e” value in data set [1] is given as ~ 10 fold.
Consider `Cc1cc(C)c2c(n1)sc1c(NCc3ccc(C(C)(C)O)cc3)nccc12` [18b], for which the pEC50 in data set [1] is over 6.46. For the same compound, the “fold increase in hM4 potency versus 16m” value in data set [1] (compared with 16m) was ~ 2.8 fold. Further, the CLint scaled in data set [2] was 334 mL/min/kg; in data set [3], 50 mL/min/kg. Moreover, the Kp uu at […] in data set [4] turned out to be 1.16.
For the compound `Cc1cc(C)c2c(n1)sc1c(C3CCN(c4cncc(F)c4)CC3)ncnc12` [compound 26], the “hM4 EC50” value in data set [1] is “complete loss of activity”.
On to `Cc1cc(C)c2c(n1)sc1c(NC3CN(c4ncc(C(F)(F)F)cn4)C3)nccc12` [18c], for which, in data set [1] (compared with 16p), the “fold increase in hM4 potency versus 16p” value is given as ~ 44 fold.
Regarding `Cc1cc(C)c2c(n1)sc1c(C3CCNCC3)ncnc12` [24e], in data set [1] (compared with 24d), the “fold loss of hM4 functional potency versus 24d” value is ~ 40 fold.
`Cc1cc(C)c2c(n1)oc1c(NCc3ccc(C(C)(C)O)cc3)ncnc12` [17e]: the “hM4 EC50” value in data set [1] is reported as “complete loss of activity”.
`Cc1cc(C)c2c(n1)sc1c(C3CCN(CC4CC4)CC3)ncnc12` [compound 30]: the “hM4 EC50” value in data set [1] is on record as “complete loss of M4 potency”.
In data set [1], `Cc1cc(C)c2c(n1)sc1c(NCc3ccc(S(C)(=O)=O)cc3)ncnc12` [16o] had a pEC50 of over 6.46. Also, the CLint scaled was 176 mL/min/kg in data set [2] and 28 mL/min/kg in data set [3]. In data set [4], this compound gave a Kp uu at […] of 0.21.
Regarding `Cc1cc(C)c2c(n1)sc1c(OCc3ccc(C(C)(C)O)cc3)ncnc12` [compound 19], in data set [1] (compared with 16m), the “fold decrease (loss) in hM4 potency versus 16m” value came to 9.6 fold.
Take `Cc1cc(C)c2c(n1)oc1c(N3CCCC3)ncnc12` [17a]: in data set [1], the “hM4 EC50” value is recorded as “complete loss of activity”.
Take `COc1ccc(CNc2ncnc3c2oc2nc(C)cc(C)c23)cc1F` [17d]: the “hM4 EC50” value in data set [1] is recorded as “complete loss of activity”.
The compound `Cc1cc(C)c2c(n1)sc1c(N3CCC3)ncnc12` [16x] had a pEC50 in data set [1] of over 6.46. Besides, the intrinsic clearance (CLint scaled) was 741 mL/min/kg in data set [2] and 296 mL/min/kg in data set [3]. Further, the Kp uu at […] in data set [4] is 0.27.
Take `Cc1cc(C)c2c(n1)oc1c(NC3CCC3)ncnc12` [17c]: in data set [1] (compared with 16v), the “fold potency decrease versus 16v” value is 4.4 fold.
On to `Cc1cc(C)c2c(n1)oc1c(NC3CN(c4ncc(C(F)(F)F)cn4)C3)ncnc12` [17f], for which the “hM4 EC50” value in data set [1] is listed as “complete loss of activity”.
For the compound `Cc1cc(C)c2c(n1)sc1c(NC3CCC3)nccc12` [18g], in data set [1], the pEC50 was over 6.46. For the same compound, the “fold increase in functional hM4 potency versus 16v” value in data set [1] (compared with 16v) is reported as ~ 4 fold. Moreover, the “fold increase in human M4 activity versus parent compound VU0152100” value in data set [1] (compared with VU0152100) came out at 6 fold. The CLint scaled is 3860 mL/min/kg in data set [2] and 345 mL/min/kg in data set [3]. In addition, the Kp uu at […] in data set [4] is 4.18.
Consider `Cc1cc(C)c2c(n1)sc1c(C3CCOCC3)ncnc12` [24d], for which the “fold increase in hM4 functional potency versus 24a” value in data set [1] (compared with 24a) is listed as about 45 fold.
`Cc1cc(C)c2c(n1)sc1c(NCc3ccc(C(C)(C)O)cc3F)ncnc12` [16n]: the “fold decrease (loss) in hM4 potency versus 16m” value in data set [1] (compared with 16m) is recorded as ~ 2.5 fold.
